Results published in patent publication US7179597B2, “Genetic diagnosis for QT prolongation related adverse drug reactions” (Georgetown University, priority 2000, dated 2007).
“Also recorded” adds a separate entry of the source. Read-outs that look alike come from different tables or passages of the source.

Columns and labels:
CYP2D6 = CYP2D6 (Homo sapiens, UniProt P10635); conditions: Table 3, cited from earlier work
CYP1A2 = molecular target: T1, CYP1A2 (Homo sapiens, UniProt P05177); conditions: Table 3; cited from earlier work
T1 sequence (P05177 1-516): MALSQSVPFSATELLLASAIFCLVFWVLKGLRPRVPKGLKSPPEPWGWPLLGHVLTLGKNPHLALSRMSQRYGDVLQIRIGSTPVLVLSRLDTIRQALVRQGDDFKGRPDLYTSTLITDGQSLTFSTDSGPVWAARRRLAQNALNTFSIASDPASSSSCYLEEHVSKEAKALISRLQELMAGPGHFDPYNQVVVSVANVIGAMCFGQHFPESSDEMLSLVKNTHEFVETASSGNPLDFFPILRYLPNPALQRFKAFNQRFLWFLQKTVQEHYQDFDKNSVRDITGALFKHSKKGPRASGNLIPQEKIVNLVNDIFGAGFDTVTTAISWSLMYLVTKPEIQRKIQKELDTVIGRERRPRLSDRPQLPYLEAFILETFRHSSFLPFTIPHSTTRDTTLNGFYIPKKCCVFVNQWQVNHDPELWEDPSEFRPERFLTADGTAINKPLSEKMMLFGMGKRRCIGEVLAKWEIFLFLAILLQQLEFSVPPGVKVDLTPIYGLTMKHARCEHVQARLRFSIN

CYP3A = conditions: Table 3; cited from earlier work
P-gp = P-gp (Homo sapiens, UniProt P08183); conditions: Atadja et al. 1998; cited from earlier work
[1] = cited from earlier work
[2] = cited from earlier work; remark: listed apart in the source
CYP2C9 = CYP2C9 (Homo sapiens, UniProt P11712); conditions: Table 3; cited from earlier work
Chain of CYP2C9 (P11712 whole entry): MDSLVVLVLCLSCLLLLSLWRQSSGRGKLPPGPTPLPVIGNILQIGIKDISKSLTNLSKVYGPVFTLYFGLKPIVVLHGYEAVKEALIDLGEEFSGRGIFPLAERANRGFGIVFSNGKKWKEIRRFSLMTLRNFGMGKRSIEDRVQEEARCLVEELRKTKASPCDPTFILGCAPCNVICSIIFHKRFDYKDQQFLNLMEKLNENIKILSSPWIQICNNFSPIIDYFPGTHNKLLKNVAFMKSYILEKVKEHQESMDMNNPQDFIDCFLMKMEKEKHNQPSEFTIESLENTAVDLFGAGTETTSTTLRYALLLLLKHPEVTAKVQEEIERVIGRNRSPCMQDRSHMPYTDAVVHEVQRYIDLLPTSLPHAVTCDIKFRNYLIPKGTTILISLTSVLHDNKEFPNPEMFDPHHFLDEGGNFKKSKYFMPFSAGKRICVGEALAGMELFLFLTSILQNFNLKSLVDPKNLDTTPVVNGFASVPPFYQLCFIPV

CYP2C19 = CYP2C19 (Homo sapiens, UniProt P33261); conditions: Table 3; cited from earlier work
Chain of CYP2C19 (P33261 whole entry): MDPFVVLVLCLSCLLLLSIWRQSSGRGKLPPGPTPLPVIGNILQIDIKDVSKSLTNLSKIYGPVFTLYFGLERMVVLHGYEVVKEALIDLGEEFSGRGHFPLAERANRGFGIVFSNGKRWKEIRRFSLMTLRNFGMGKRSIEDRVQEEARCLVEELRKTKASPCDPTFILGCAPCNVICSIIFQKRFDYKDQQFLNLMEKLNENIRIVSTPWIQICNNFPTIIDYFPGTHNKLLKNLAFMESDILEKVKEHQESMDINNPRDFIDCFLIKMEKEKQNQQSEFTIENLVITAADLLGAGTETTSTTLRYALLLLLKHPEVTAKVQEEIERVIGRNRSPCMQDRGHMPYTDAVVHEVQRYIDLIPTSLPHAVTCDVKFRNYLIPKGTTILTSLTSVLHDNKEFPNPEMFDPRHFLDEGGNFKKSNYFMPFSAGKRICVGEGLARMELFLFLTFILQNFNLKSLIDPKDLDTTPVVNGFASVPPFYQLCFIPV

[3] = test system: cultured neonatal rat cardiomyocytes; assay: Spontaneous beating rate of cultured neonatal rat cardiomyocytes; assay type: cell-based; set-up: Reduction in beating rate / Maximum inhibition of beating activity, drug alone: dose or concentration left out as unconfirmed
Description: Delayed rectifier potassium channels are important components of cardiac repolarization. There are two major delayed rectifier potassium currents, IKr (rapid component) and IKs (slow component). Drugs that block these currents, particularly IKr, slow cardiac repolarization and increase the risk of developing potentially fatal cardiac arrhythmias such as Torsades de Pointes. Moreover, mutations in the genes encoding for delayed rectifier potassium channel proteins have been linked to long QT syndrome, a condition seen in patients at high risk for developing Torsades de Pointes cardiac arrhythmias and sudden death. […] Recently, however, a new compound, chromanol 293B, has been reported to be a relatively selective blocker of IKs (Busch et al., Pflug. Arch. 432: 1094–6 (1996)). In the present report, we have tested this compound using spontaneously beating cultures of neonatal rat cardiomyocytes.
In addition to the different electrophysiological properties of IKr versus IKs that have been described by others, these currents can be distinguished pharmacologically (Sanguinetti et al., J. Gen. Physiol. 96: 195–215 (1990)). […] To determine if pharmacological blockade of delayed rectifier potassium currents influences the spontaneous beating rate of cultured neonatal rat cardiomyocytes, a dose-response curve was generated for chromanol 293B.

IKs = conditions: cited from earlier work
Ito = assay: Whole-cell voltage clamp of transient outward current Ito in rabbit ventricular myocytes; assay type: cell-based; conditions: 5 μmol/L, 5 minutes superfusion
IK1 = assay: Whole-cell voltage clamp of inward rectifier IK1 in rabbit ventricular myocytes; assay type: cell-based; conditions: 5 μmol/L, 5 minutes
[4] = test system: rabbit ventricular myocytes; conditions: 3.3 μmol/L, about 4–5 min; before drug 341±49 ms; n=16, p>0.05
L-type ICa = L-type ICa (Oryctolagus cuniculus, UniProt P15381); conditions: 10 μmol/L
Chain of L-type ICa (P15381 whole entry, other chains not shown, the tested form may be a part): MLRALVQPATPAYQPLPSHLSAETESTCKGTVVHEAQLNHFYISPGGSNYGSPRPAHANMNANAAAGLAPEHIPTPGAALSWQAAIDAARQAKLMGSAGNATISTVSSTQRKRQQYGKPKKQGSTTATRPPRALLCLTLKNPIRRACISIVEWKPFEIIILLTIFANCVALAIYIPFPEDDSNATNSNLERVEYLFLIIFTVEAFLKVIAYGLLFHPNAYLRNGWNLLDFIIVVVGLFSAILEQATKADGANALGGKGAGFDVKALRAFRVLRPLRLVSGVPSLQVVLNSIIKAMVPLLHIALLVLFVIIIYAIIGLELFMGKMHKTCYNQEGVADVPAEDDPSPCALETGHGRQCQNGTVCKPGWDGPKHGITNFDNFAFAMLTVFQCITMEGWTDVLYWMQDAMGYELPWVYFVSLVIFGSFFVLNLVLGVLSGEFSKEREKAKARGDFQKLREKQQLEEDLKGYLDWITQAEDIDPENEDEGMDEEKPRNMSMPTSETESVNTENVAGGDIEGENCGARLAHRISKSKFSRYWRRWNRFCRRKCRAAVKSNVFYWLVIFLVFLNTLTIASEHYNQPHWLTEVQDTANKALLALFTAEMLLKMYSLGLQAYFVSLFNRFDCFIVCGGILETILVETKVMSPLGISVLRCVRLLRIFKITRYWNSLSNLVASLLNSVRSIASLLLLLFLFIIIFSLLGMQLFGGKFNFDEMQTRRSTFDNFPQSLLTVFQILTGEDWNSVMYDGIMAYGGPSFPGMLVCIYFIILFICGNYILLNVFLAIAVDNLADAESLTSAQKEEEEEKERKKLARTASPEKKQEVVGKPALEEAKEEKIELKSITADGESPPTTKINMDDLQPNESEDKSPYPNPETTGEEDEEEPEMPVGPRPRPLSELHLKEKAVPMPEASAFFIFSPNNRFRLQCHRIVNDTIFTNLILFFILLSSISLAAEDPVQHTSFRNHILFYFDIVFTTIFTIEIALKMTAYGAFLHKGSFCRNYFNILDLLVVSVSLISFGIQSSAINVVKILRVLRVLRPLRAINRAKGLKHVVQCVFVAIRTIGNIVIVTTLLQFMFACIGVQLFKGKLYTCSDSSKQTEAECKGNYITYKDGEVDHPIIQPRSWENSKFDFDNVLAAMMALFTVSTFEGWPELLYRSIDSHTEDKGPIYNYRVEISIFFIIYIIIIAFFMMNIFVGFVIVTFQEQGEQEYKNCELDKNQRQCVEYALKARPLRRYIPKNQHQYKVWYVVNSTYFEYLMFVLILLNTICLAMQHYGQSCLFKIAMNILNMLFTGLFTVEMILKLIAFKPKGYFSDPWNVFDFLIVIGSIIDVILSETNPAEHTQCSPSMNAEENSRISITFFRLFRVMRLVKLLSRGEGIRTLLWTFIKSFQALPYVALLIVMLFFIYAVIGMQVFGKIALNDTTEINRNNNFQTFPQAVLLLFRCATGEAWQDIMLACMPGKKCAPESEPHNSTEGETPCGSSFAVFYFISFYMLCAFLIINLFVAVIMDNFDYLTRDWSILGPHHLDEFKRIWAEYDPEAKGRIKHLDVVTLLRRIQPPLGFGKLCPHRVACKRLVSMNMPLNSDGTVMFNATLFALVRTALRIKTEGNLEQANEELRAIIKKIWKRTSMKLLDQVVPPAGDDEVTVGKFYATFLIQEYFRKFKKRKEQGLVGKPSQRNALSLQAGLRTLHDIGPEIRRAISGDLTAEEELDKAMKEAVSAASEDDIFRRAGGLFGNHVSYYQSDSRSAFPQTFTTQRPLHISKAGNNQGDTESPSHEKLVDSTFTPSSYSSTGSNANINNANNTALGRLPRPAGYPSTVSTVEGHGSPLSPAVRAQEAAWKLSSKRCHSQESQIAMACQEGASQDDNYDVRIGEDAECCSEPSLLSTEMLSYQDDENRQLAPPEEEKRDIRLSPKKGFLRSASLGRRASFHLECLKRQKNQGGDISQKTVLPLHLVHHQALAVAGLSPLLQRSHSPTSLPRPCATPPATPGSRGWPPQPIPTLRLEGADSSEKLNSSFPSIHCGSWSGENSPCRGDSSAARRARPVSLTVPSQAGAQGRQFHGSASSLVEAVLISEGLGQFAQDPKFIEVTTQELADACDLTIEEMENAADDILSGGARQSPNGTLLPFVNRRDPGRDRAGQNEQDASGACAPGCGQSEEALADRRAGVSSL
Chain of L-type ICa (P13806 27-1106 partner, other chains not shown): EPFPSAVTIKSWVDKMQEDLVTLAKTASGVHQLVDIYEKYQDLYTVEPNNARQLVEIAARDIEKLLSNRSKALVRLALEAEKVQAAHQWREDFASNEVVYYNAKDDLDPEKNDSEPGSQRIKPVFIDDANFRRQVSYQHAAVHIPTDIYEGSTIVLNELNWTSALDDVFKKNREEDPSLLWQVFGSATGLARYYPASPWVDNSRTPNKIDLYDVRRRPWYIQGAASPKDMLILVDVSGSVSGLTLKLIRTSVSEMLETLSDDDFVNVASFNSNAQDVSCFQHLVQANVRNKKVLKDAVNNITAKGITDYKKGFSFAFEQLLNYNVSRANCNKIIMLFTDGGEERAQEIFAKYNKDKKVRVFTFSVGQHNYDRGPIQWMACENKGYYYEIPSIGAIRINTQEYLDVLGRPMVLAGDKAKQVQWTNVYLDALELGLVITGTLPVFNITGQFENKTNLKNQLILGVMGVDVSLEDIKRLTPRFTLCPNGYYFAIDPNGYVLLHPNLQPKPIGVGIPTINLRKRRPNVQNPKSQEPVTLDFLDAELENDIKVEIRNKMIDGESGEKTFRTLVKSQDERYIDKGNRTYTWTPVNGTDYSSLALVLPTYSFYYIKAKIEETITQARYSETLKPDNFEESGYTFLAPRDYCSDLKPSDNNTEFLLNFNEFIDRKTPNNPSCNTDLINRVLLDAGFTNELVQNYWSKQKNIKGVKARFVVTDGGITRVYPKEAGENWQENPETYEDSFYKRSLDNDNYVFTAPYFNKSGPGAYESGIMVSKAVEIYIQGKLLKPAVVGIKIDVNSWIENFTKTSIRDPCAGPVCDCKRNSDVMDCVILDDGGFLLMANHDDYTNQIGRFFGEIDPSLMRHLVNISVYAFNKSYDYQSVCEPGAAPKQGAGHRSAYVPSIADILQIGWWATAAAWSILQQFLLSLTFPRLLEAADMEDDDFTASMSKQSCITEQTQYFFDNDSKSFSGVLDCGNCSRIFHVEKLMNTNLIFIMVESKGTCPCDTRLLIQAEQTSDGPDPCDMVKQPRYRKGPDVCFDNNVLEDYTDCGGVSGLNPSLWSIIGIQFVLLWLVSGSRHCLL

IKr = molecular target: T2, IKr (Oryctolagus cuniculus, UniProt Q8WNY2); conditions: superfusion with 1–2.5 μmol/L (Liu et al. 1998); cited from earlier work
T2 sequence (Q8WNY2 1-1161): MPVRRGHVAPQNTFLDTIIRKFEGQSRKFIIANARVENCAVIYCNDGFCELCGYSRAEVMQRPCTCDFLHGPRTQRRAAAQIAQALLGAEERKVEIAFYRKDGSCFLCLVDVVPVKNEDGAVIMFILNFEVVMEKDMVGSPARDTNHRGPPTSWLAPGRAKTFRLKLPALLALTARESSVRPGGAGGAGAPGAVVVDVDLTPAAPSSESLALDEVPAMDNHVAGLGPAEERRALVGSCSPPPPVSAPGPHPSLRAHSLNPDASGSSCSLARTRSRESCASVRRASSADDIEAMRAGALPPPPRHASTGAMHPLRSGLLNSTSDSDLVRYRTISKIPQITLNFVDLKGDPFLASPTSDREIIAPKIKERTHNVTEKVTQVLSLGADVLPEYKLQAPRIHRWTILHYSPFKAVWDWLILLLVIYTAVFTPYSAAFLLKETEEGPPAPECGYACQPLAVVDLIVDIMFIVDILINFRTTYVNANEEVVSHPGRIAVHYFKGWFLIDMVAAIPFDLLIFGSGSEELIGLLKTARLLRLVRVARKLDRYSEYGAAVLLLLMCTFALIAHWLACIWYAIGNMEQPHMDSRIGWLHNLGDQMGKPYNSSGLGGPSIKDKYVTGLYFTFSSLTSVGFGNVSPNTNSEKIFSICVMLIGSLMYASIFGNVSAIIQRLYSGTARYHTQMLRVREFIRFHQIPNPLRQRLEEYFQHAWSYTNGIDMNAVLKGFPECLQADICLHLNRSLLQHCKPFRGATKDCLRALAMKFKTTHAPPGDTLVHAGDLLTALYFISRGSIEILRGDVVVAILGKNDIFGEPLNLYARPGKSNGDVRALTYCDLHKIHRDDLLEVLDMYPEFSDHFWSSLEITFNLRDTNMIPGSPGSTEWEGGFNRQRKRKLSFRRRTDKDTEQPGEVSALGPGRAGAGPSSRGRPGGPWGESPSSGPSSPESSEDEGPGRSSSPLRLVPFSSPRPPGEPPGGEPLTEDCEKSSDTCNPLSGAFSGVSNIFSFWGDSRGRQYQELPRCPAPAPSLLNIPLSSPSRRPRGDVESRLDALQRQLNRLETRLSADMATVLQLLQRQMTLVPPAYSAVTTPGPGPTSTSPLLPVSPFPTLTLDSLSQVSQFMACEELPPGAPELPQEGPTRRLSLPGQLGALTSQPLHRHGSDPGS

Chain of CYP2D6 (P10635 whole entry): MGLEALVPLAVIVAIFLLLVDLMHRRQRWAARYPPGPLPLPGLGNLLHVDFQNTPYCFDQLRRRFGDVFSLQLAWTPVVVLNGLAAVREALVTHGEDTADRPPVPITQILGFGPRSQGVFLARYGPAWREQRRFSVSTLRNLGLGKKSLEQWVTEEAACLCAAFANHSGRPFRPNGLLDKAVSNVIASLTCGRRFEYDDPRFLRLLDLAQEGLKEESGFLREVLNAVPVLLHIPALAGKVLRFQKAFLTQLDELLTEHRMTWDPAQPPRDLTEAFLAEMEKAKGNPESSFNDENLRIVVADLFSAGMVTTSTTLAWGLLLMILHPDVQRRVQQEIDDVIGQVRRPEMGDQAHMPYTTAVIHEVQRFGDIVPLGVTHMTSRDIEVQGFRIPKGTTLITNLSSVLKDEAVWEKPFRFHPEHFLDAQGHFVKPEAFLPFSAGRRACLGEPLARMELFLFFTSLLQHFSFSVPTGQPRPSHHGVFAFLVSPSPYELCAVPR

Q: For `O=C(CCCN1CCC(O)(c2ccc(Cl)cc2)CC1)c1ccc(F)cc1` [Haloperidol], which “Interactions: cytochrome P-450 isoform 2D6, substrate or inhibitor” value (CYP2D6; CYP2D6 inhibitor) is on record?
A: The value was “Inhibitor”.

Q: What about the “Interactions: cytochrome P-450 isoform 2D6, substrate or inhibitor” value (CYP2D6; CYP2D6 substrate) of the same compound?
A: Its value is “Substrate”.

Q: And the “Interactions: cytochrome P-450 isoform 1A2, substrate or inhibitor” value (CYP1A2)?
A: Its value is “Substrate”.

Q: What about the “Interactions: cytochrome P-450 isoform 3A, substrate or inhibitor” value (CYP3A) of the same compound?
A: Its value is “Substrate”.

Q: With `C/C=C/C[C@@H](C)C(=O)[C@H]1C(=O)N[C@@H](C(C)C)C(=O)N(C)CC(=O)N(C)[C@@H](CC(C)C)C(=O)N[C@@H](C(C)C)C(=O)N(C)[C@@H](CC(C)C)C(=O)N[C@@H](C)C(=O)N[C@H](C)C(=O)N(C)[C@@H](CC(C)C)C(=O)N(C)[C@@H](CC(C)C)C(=O)N(C)[C@@H](C(C)C)C(=O)N1C` [PSC-833] as the compound, how does the “Effect on P-gp” value (P-gp) read?
A: The value was “potently and specifically inhibits”.

Q: Which TdP ([1]; Table 2, FDA / medical literature) does the source give for `CN(C)CCC=C1c2ccccc2CCc2ccccc21` [Amitriptyline] here?
A: The TdP was “Yes”.

Q: What about the TdP ([1]; Table 3) of the same compound?
A: The TdP was “Yes”.

Q: What about the “Interactions: cytochrome P-450 isoform 2D6, substrate or inhibitor” value (CYP2D6) of the same compound?
A: Its value is “Substrate”.

Q: And the “Interactions: cytochrome P-450 isoform 1A2, substrate or inhibitor” value (CYP1A2)?
A: Its value is “Substrate”.

Q: What about the QT ([2]; Table 2, drug labeling) of the same compound?
A: The QT was “Yes”.

Q: What about the QT ([2]; Table 3) of the same compound?
A: The QT was “Yes”.

Q: What about the “Interactions: cytochrome P-450 isoform 2C9, substrate or inhibitor” value (CYP2C9) of the same compound?
A: The value was “Substrate”.

Q: And the “Interactions: cytochrome P-450 isoform 2C19, substrate or inhibitor” value (CYP2C19)?
A: The value was “Substrate”.

Q: With `CCS(=O)(=O)N(C)[C@H]1c2cc(C#N)ccc2OC(C)(C)[C@@H]1O` (racemic) [chromanol 293B] as the compound, how does the “Maximum inhibition of beating activity, drug alone” value ([3]; 293B alone) read?
A: The value was 50%.

Q: What about the “Effect on spontaneous beating rate” value ([3]; dose-response curve) of the same compound?
A: Its value is “dose-dependent decrease in beating rate”.

Q: What about the “Reduction in beating rate” value ([3]; highest drug concentration tested, relative to control) of the same compound?
A: Its value is “about 50%”.

Q: What about the Concentrations up to which IKs is selectively blocked (IKs; Busch et al. 1996) of the same compound?
A: Its Concentrations up to which IKs is selectively blocked is 10 to 30 µM.

Q: What about the Concentration required to achieve complete blockade of IKs (IKs; guinea pig ventricular myocytes (Busch et al. 1996)) of the same compound?
A: Its Concentration required to achieve complete blockade of IKs is 100 µM.

Q: For `Cc1cccc(CCN2CCC(C(=O)c3ccc(NS(C)(=O)=O)cc3)CC2)n1` [E-4031], which “Effect on transient outward current (Ito)” value (Ito) is on record?
A: Its value is “no effect; also recorded: without affecting”.

Q: And the “Maximum inhibition of beating activity, drug alone” value ([3]; 5–10 mnM E-4031 alone)?
A: The value was 50%.

Q: And the “Effect on IK1 outward (holding) current” value (IK1; at −40 mV)?
A: Its value is “without affecting; also recorded: no effect”.

Q: What about the “Effect on IK1 inward current” value (IK1; recorded at −120 mV) of the same compound?
A: Its value is “little effect”.

Q: Which “APD measured at 90% repolarization (APD90) after superfusion” value [4] does the source give for `CC/C(=C(\c1ccccc1)c1ccc(OCCN(C)C)cc1)c1ccccc1` [Tamoxifen] here?
A: The value was 332 ± 19 ms.

Q: And the “Inhibition of ICa” value (L-type ICa)?
A: Its value is “almost complete inhibition; also recorded: marked inhibition”.

Q: Which “Effect on IKr tail current” value (IKr) does the source give for `CN(CCOc1ccc(NS(C)(=O)=O)cc1)CCc1ccc(NS(C)(=O)=O)cc1` [dofetilide] here?
A: The value was “abolished”.

Q: Which results are given for `CN(C)CCCN1c2ccccc2CCc2ccc(Cl)cc21` [Clomipramine]?
A: Interactions: cytochrome P-450 isoform 1A2, substrate or inhibitor (CYP1A2): Substrate; Interactions: cytochrome P-450 isoform 2C19, substrate or inhibitor (CYP2C19): Substrate
